Paper PMC5077133, “Towards Development of Small Molecule Lipid II Inhibitors as Novel Antibiotics” (PLoS ONE, 2016)
Read-outs that look alike come from different tables or passages of the source.

Experiments:
Assay in all cases: Cytochrome P450 inhibition
Assay type in all cases: in vitro ADME
CYP2C19 = target: T1, CYP2C19 (Homo sapiens, UniProt P33261); details: recombinant human CYP2C19 (Supersomes), pH 7.4, probe CEC, IC50 fluorescence, substrate CEC, read-out: P450 enzyme inhibition IC50 CYP2C19/CEC
T1 construct: purchased Corning
Method: (§1) The final concentration of each substrate was 1 μM.
(§2) Computation of IC50 values:The background of no-enzyme samples to determine the background value were averaged. The positive control or full-reaction samples to determine the signal value were averaged.
(§3) The percent activity of each sample was calculated as follows:
(§4) [(Test compound metabolite–average background)/(average signal–average background)] X 100 = % activity
(§5) The the IC50 value using non-linear regression was calculated.

CYP3A4 = target: T2, CYP3A4 (Homo sapiens, UniProt P08684); details: IC50 fluorescence
T2 construct: purchased Corning
Method: as §1, §2, §3, §4, §5

CYP2D6 = target: T3, CYP2D6 (Homo sapiens, UniProt P10635); details: recombinant human CYP2D6 (Supersomes), pH 7.4, probe AMMC, IC50 fluorescence, substrate AMMC, read-out: P450 enzyme inhibition IC50 CYP2D6/ AMMC
T3 construct: purchased Corning
Method: as §1, §2, §3, §4, §5

T2 sequence (P08684 whole entry): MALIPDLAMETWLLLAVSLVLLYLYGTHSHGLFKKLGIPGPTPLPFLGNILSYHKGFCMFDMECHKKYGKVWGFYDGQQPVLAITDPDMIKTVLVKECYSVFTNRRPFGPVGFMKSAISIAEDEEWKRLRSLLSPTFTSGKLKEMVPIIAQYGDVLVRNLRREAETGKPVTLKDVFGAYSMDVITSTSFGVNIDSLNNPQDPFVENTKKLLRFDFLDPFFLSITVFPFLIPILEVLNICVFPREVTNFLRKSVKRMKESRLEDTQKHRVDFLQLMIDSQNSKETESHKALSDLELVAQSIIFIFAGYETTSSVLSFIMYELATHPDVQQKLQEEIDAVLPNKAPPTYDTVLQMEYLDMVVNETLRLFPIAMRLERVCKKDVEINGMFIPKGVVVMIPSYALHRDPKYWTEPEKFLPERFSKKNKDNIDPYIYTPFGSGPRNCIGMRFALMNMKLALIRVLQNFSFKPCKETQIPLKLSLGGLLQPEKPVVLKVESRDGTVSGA
T1 sequence (P33261 whole entry): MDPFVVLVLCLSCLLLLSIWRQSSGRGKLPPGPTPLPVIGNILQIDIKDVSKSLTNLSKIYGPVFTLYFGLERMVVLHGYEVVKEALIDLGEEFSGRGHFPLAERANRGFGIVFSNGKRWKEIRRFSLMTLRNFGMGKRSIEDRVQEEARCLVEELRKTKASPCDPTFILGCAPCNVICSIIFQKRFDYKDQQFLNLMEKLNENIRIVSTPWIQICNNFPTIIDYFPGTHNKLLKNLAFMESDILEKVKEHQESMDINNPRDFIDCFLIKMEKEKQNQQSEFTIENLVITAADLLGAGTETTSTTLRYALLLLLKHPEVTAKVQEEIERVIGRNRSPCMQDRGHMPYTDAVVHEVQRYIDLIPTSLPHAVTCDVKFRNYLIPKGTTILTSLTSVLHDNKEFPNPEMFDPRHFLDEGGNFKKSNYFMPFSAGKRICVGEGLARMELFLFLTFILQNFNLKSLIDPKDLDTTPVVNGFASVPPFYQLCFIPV
T3 sequence (P10635 whole entry): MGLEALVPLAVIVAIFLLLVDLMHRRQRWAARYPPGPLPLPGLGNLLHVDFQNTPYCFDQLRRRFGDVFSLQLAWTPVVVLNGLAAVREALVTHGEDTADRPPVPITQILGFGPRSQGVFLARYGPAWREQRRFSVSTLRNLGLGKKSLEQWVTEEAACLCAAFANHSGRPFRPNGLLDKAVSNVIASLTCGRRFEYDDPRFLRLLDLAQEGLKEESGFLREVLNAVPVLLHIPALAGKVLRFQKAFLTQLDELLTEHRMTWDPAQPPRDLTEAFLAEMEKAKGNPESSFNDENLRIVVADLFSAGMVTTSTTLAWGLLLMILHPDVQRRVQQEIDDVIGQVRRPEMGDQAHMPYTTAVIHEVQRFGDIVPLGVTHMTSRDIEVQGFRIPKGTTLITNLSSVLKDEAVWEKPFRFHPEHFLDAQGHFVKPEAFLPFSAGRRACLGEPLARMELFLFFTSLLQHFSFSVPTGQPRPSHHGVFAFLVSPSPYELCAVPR

With `CN(C)c1ccc(/C=C/c2cc(-c3ccc(Br)cc3)cc(-c3ccc(Br)cc3)[o+]2)cc1` [6jc48-1] as the compound, how does the IC50 (CYP2C19) read?
Its IC50 is greater than 10 µM.

What about the IC50 (CYP3A4; substrate BFC, read-out: P450 enzyme inhibition IC50 CYP3A4/ BFC) of the same compound?
The IC50 was 1.3 µM.

And the IC50 (CYP3A4; human, recombinant human CYP3A4 (Supersomes), pH 7.4, probe DBF, substrate DBF, read-out: P450 enzyme inhibition IC50 CYP3A4/ DBF)?
Its IC50 is greater than 10 µM.

What about the IC50 (CYP2D6) of the same compound?
Its IC50 is greater than 10 µM.
